Data: patent US20260007681A1, “INDOLE DERIVATIVES AS ESTROGEN RECEPTOR DEGRADERS” (REGENTS OF THE UNIVERSITY OF MICHIGAN, priority 2022, published 2026)

Biological target: ER (Homo sapiens (Human), UniProt P03372)
Experiment: Western blot analysis (Compounds B1-B278)
Type: cell-based
Details: ER degradation by traditional Western blot; DC50 classes
Outline: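 Relative target-protein levels come from densitometry of immunoblots, normalized to GAPDH. Lysates from treated cells were prepared in RIPA buffer (pH 7.6) containing protease inhibitors, and equal protein amounts, checked by BCA, were separated on 10% gels and blotted onto PVDF.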

Sequence of ER (P03372 whole entry): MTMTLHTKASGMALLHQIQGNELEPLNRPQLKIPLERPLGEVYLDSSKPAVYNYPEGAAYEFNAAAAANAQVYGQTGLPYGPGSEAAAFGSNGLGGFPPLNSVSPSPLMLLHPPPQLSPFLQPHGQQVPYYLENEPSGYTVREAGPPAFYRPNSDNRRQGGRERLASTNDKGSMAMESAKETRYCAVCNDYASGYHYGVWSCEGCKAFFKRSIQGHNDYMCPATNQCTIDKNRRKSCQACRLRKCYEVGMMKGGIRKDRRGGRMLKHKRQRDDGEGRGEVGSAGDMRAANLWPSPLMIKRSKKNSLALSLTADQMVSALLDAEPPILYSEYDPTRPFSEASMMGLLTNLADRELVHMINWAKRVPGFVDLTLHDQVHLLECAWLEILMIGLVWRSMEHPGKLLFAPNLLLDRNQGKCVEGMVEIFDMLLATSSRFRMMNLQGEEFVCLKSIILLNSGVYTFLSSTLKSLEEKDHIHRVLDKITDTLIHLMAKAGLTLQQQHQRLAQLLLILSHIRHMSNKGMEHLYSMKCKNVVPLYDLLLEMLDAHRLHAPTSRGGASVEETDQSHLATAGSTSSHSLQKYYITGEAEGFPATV

Row | Traditional Western Degradation Potency | Structure (SMILES)
1 | B (“B”: 10-100 nM) | C[C@@H]1Cc2c([nH]c3ccccc23)[C@@H](c2ccc(N3CCC4(CCN(C(=O)CN5Cc6cc7c(cc6C5)C(=O)N(C5CCC(=O)NC5=O)C7=O)CC4)CC3)cc2)N1CC(F)F (stereo partly drawn) [Compound B227, 6-(2-(9-(4-((1R,3R)-2-(2,2-difluoroethyl)-3-methyl-2,3,4,9-tetrahydro-1H-pyrido[3,4-b]indol-1-yl)phenyl)-3,9-diazaspiro[5.5]undecan-3-yl)-2-oxoethyl)-2-(2,6-dioxopiperidin-3-yl)-6,7-dihydropyrrolo[3,4-f]isoindole-1,3(2H,5H)-dione]
2 | B (“B”: 10-100 nM) | C[C@@H]1Cc2c([nH]c3ccccc23)[C@@H](c2c(F)cc(N3CCC(CN4CCC5(CC4)CC(N4Cc6cc7c(cc6C4)C(=O)N(C4CCC(=O)NC4=O)C7=O)C5)CC3)cc2F)N1CC(F)F (stereo partly drawn) [Compound B69, 6-(7-((1-(4-((1R,3R)-2-(2,2-difluoroethyl)-3-methyl-2,3,4,9-tetrahydro-1H-pyrido[3,4-b]indol-1-yl)-3,5-difluorophenyl)piperidin-4-yl)methyl)-7-azaspiro[3.5]nonan-2-yl)-2-(2,6-dioxopiperidin-3-yl)-6,7-dihydropyrrolo[3,4-f]isoindole-1,3(2H,5H)-dione]
3 | C (“C”: >100 nM) | C[C@@H]1Cc2c([nH]c3ccccc23)[C@@H](c2ccc(N3CCC4(CCN(CC(=O)N5Cc6cc7c(cc6C5)C(=O)N(C5CCC(=O)NC5=O)C7=O)CC4)CC3)cn2)N1CC(F)F (stereo partly drawn) [Compound B230, 6-(2-(9-(6-((1S,3R)-2-(2,2-difluoroethyl)-3-methyl-2,3,4,9-tetrahydro-1H-pyrido[3,4-b]indol-1-yl)pyridin-3-yl)-3,9-diazaspiro[5.5]undecan-3-yl)acetyl)-2-(2,6-dioxopiperidin-3-yl)-6,7-dihydropyrrolo[3,4-f]isoindole-1,3(2H,5H)-dione]
4 | A (“A”: <10 nM) | C[C@@H]1Cc2c([nH]c3ccccc23)[C@@H](c2c(F)cc(N3CCC4(CN(C(=O)CN5Cc6cc7c(cc6C5)C(=O)N(C5CCC(=O)NC5=O)C7)C4)C3)cc2F)N1CC(F)F (stereo partly drawn) [Compound B15, 3-(6-(2-(6-(4-((1R,3R)-2-(2,2-difluoroethyl)-3-methyl-2,3,4,9-tetrahydro-1H-pyrido[3,4-b]indol-1-yl)-3,5-difluorophenyl)-2,6-diazaspiro[3.4]octan-2-yl)-2-oxoethyl)-1-oxo-3,5,6,7-tetrahydropyrrolo[3,4-f]isoindol-2(1H)-yl)piperidine-2,6-dione]
5 | A (“A”: <10 nM) | C[C@@H]1Cc2c([nH]c3ccccc23)[C@@H](c2c(F)cc(N3CCC4(CCN(C(=O)CN5Cc6cc7c(cc6C5)C(=O)N(C5CCC(=O)NC5=O)C7=O)CC4)CC3)cc2F)N1CC(C)(F)F (stereo partly drawn) [Compound B215, 6-(2-(9-(4-((1R,3R)-2-(2,2-difluoropropyl)-3-methyl-2,3,4,9-tetrahydro-1H-pyrido[3,4-b]indol-1-yl)-3,5-difluorophenyl)-3,9-diazaspiro[5.5]undecan-3-yl)-2-oxoethyl)-2-(2,6-dioxopiperidin-3-yl)-6,7-dihydropyrrolo[3,4-f]isoindole-1,3(2H,5H)-dione]
6 | B (“B”: 10-100 nM) | C[C@@H]1Cc2c([nH]c3ccccc23)[C@@H](c2c(F)cc(N3CC(F)(C(=O)N4CCC(CN5Cc6cc7c(cc6C5)C(=O)N(C5CCC(=O)NC5=O)C7=O)CC4)C3)cc2F)N1CC(F)F (stereo partly drawn) [Compound B74, 6-((1-(1-(4-((1R,3R)-2-(2,2-difluoroethyl)-3-methyl-2,3,4,9-tetrahydro-1H-pyrido[3,4-b]indol-1-yl)-3,5-difluorophenyl)-3-fluoroazetidine-3-carbonyl)piperidin-4-yl)methyl)-2-(2,6-dioxopiperidin-3-yl)-6,7-dihydropyrrolo[3,4-f]isoindole-1,3(2H,5H)-dione]
7 | C (“C”: >100 nM) | C[C@@H]1Cc2c([nH]c3ccccc23)[C@@H](c2c(F)cc(CN3CCC4(CCC(CN5Cc6cc7c(cc6C5)C(=O)N(C5CCC(=O)NC5=O)C7=O)CC4)CC3)cc2F)N1CC(F)F (stereo partly drawn) [Compound B101, 6-((3-(4-((1R,3R)-2-(2,2-difluoroethyl)-3-methyl-2,3,4,9-tetrahydro-1H-pyrido[3,4-b]indol-1-yl)-3,5-difluorobenzyl)-3-azaspiro[5.5]undecan-9-yl)methyl)-2-(2,6-dioxopiperidin-3-yl)-6,7-dihydropyrrolo[3,4-f]isoindole-1,3(2H,5H)-dione]

Continued, compound first:

Row | Structure (SMILES) | Traditional Western Degradation Potency
8 | C[C@@H]1Cc2c([nH]c3ccccc23)[C@@H](c2cnc(N3CC4(CCC(CN5Cc6cc7c(cc6C5)C(=O)N(C5CCC(=O)NC5=O)C7=O)CC4)C3)nc2)N1CC(C)(C)F (stereo partly drawn) [Compound B184, 2-(2,6-dioxopiperidin-3-yl)-6-((2-(5-((1R,3R)-2-(2-fluoro-2-methylpropyl)-3-methyl-2,3,4,9-tetrahydro-1H-pyrido[3,4-b]indol-1-yl)pyrimidin-2-yl)-2-azaspiro[3.5]nonan-7-yl)methyl) 6,7-dihydropyrrolo[3,4-f]isoindole-1,3(2H,5H)-dione] | C (“C”: >100 nM)
9 | COc1cc([C@H]2CC[C@@H](C(=O)N3CCC(N4Cc5cc6c(cc5C4)C(=O)N(C4CCC(=O)NC4=O)C6=O)CC3)CC2)ncc1[C@@H]1c2[nH]c3ccccc3c2C[C@@H](C)N1CC(F)F (stereo partly drawn) [Compound B107, 6-(1-((1S,4s)-4-(5-((1R,3R)-2-(2,2-difluoroethyl)-3-methyl-2,3,4,9-tetrahydro-1H-pyrido[3,4-b]indol-1-yl)-4-methoxypyridin-2-yl)cyclohexane-1-carbonyl)piperidin-4-yl)-2-(2,6-dioxopiperidin-3-yl)-6,7-dihydropyrrolo[3,4-f]isoindole-1,3(2H,5H)-dione] | C (“C”: >100 nM)
10 | C[C@@H]1Cc2c([nH]c3ccccc23)[C@@H](c2c(F)cc(N3CCC4(CCN(C(=O)CN5Cc6cc7c(cc6C5)C(=O)N(C5CCC(=O)NC5=O)C7)C4)C3)cc2F)N1CC(F)F (stereo partly drawn) [Compound B11, 3-(6-(2-(7-(4-((1R,3R)-2-(2,2-difluoroethyl)-3-methyl-2,3,4,9-tetrahydro-1H-pyrido[3,4-b]indol-1-yl)-3,5-difluorophenyl)-2,7-diazaspiro[4.4]nonan-2-yl)-2-oxoethyl)-1-oxo-3,5,6,7-tetrahydropyrrolo[3,4-f]isoindol-2(1H)-yl)piperidine-2,6-dione] | B (“B”: 10-100 nM)
11 | C[C@@H]1Cc2c([nH]c3ccccc23)[C@@H](c2c(F)cc(N3CC4(CCN(C(=O)CN5Cc6cc7c(cc6C5)C(=O)N(C5CCC(=O)NC5=O)C7=O)C4)C3)cc2F)N1CC(F)F (stereo partly drawn) [Compound B20, 6-(2-(2-(4-((1R,3R)-2-(2,2-difluoroethyl)-3-methyl-2,3,4,9-tetrahydro-1H-pyrido[3,4-b]indol-1-yl)-3,5-difluorophenyl)-2,6-diazaspiro[3.4]octan-6-yl)-2-oxoethyl)-2-(2,6-dioxopiperidin-3-yl)-6,7-dihydropyrrolo[3,4-f]isoindole-1,3(2H,5H)-dione] | A (“A”: <10 nM)
12 | C[C@@H]1Cc2c([nH]c3ccccc23)[C@@H](c2c(F)cc(N3CC(F)(C(=O)N4CCC(F)(CN5Cc6cc7c(cc6C5)C(=O)N(C5CCC(=O)NC5=O)C7=O)CC4)C3)cc2F)N1CC(F)F (stereo partly drawn) [Compound B75, 6-((1-(1-(4-((1R,3R)-2-(2,2-difluoroethyl)-3-methyl-2,3,4,9-tetrahydro-1H-pyrido[3,4-b]indol-1-yl)-3,5-difluorophenyl)-3-fluoroazetidine-3-carbonyl)-4-fluoropiperidin-4-yl)methyl)-2-(2,6-dioxopiperidin-3-yl)-6,7-dihydropyrrolo[3,4-f]isoindole-1,3(2H,5H)-dione] | C (“C”: >100 nM)
13 | C[C@@H]1Cc2c([nH]c3ccccc23)[C@@H](c2c(F)cc(N3CC4(CCCN(CC(=O)N5Cc6cc7c(cc6C5)C(=O)N(C5CCC(=O)NC5=O)C7=O)C4)C3)cc2F)N1CC(F)F (stereo partly drawn) [Compound B45, 6-(2-(2-(4-((1R,3R)-2-(2,2-difluoroethyl)-3-methyl-2,3,4,9-tetrahydro-1H-pyrido[3,4-b]indol-1-yl)-3,5-difluorophenyl)-2,6-diazaspiro[3.5]nonan-6-yl)acetyl)-2-(2,6-dioxopiperidin-3-yl)-6,7-dihydropyrrolo[3,4-f]isoindole-1,3(2H,5H)-dione] | C (“C”: >100 nM)
14 | C[C@H]1Cc2c([nH]c3ccccc23)[C@H](c2c(F)cc(N3CC4(CCN(C(=O)CN5Cc6cc7c(cc6C5)C(=O)N(C5CCC(=O)NC5=O)C7)CC4)C3)cc2F)N1CC(F)F (stereo partly drawn) [Compound B28, 3-(6-(2-(2-(4-((1S,3S)-2-(2,2-difluoroethyl)-3-methyl-2,3,4,9-tetrahydro-1H-pyrido[3,4-b]indol-1-yl)-3,5-difluorophenyl)-2,7-diazaspiro[3.5]nonan-7-yl)-2-oxoethyl)-1-oxo-3,5,6,7-tetrahydropyrrolo[3,4-f]isoindol-2(1H)-yl)piperidine-2,6-dione] | A (“A”: <10 nM)
15 | C[C@@H]1Cc2c([nH]c3ccccc23)[C@@H](c2c(F)cc(N3CCN(CCN4Cc5cc6c(cc5C4)C(=O)N(C4CCC(=O)NC4=O)C6)CC3)cc2F)N1CC(F)F (stereo partly drawn) [Compound B5, 3-(6-(2-(4-(4-((1R,3R)-2-(2,2-difluoroethyl)-3-methyl-2,3,4,9-tetrahydro-1H-pyrido[3,4-b]indol-1-yl)-3,5-difluorophenyl)piperazin-1-yl)ethyl)-1-oxo-3,5,6,7-tetrahydropyrrolo[3,4-f]isoindol-2(1H)-yl)piperidine-2,6-dione] | B (“B”: 10-100 nM)
16 | C[C@@H]1Cc2c([nH]c3ccccc23)[C@@H](c2c(F)cc(-c3ccc(CN4CCC(N5Cc6cc7c(cc6C5)C(=O)N(C5CCC(=O)NC5=O)C7=O)CC4)nc3)cc2F)N1CC(F)F (stereo partly drawn) [Compound B88, 6-(1-((5-(4-((1R,3R)-2-(2,2-difluoroethyl)-3-methyl-2,3,4,9-tetrahydro-1H-pyrido[3,4-b]indol-1-yl)-3,5-difluorophenyl)pyridin-2-yl)methyl)piperidin-4-yl)-2-(2,6-dioxopiperidin-3-yl)-6,7-dihydropyrrolo[3,4-f]isoindole-1,3(2H,5H)-dione] | C (“C”: >100 nM)
